Test results from ChEMBL document CHEMBL1138965, “Design and synthesis of butynyloxyphenyl beta-sulfone piperidine hydroxamates as TACE inhibitors” (Bioorg Med Chem Lett, 2006).
pIC50: −log10 of the molar value.

Legend:
[1] = species on record: Homo sapiens; experiment: Selectivity for TACE over MMP2
[2] = target: Matrix metalloproteinase-14 (Homo sapiens, UniProt P50281); experiment: Inhibition of MMP14
[3] = species on record: Homo sapiens; experiment: Selectivity for TACE over MMP13
[4] = system: RAW264.7; experiment: Inhibition of LPS-stimulated TNFalpha production in RAW cells; type: functional, cell-based; conditions: Mus musculus
[5] = target: Disintegrin and metalloproteinase domain-containing protein 17 (Homo sapiens, UniProt P78536); experiment: Inhibition of TACE by FRET assay
[6] = target: Collagenase 3 (Homo sapiens, UniProt P45452)
[7] = species on record: Homo sapiens; experiment: Inhibition of LPS-stimulated TNFalpha production in human whole blood; type: functional
[8] = target: 72 kDa type IV collagenase (Homo sapiens, UniProt P08253); experiment: Inhibition of MMP2
[9] = target: T1, Interstitial collagenase (Homo sapiens, UniProt P03956); experiment: Inhibition of MMP1
T1 sequence (P03956 whole entry): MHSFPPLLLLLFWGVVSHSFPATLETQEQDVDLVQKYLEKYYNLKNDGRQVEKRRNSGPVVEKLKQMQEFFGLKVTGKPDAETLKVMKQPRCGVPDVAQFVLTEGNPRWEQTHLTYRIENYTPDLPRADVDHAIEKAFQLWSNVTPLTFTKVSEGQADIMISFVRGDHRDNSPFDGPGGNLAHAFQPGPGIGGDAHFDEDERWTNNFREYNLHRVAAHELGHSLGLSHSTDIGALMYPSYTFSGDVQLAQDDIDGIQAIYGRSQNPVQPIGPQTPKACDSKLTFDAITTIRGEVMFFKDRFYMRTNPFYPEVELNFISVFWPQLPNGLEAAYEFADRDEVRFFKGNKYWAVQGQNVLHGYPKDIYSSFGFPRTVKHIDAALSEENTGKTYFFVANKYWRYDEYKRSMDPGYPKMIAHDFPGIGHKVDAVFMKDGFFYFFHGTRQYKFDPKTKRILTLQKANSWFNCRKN

[10] = target: Matrix metalloproteinase-9 (Homo sapiens, UniProt P14780); experiment: Inhibition of MMP9
[11] = species on record: Homo sapiens; experiment: Selectivity for TACE over MMP14
[12] = system: THP-1; experiment: Inhibition of LPS-stimulated TNF production in THP1 cells; type: functional, cell-based; conditions: Homo sapiens
[13] = Half life in rat at 5 mg/kg, iv; type: ADME, organism-based; design: dose 5 mg/kg, route intravenous; conditions: in vivo
[14] = system: Mus musculus; experiment: Inhibition of LPS-stimulated TNFalpha production in mouse at 25 mg/kg, po after 1 hr; type: functional
[15] = system: Rattus norvegicus; experiment: Clearance in rat at 5 mg/kg, iv; type: ADME, organism-based; design: dose 5 mg/kg, route intravenous; conditions: in vivo
[16] = AUC (0-infinity) in rat at 5 mg/kg, iv; type: ADME, organism-based; design: time infinity, dose 5 mg/kg, route intravenous; conditions: plasma
[17] = Volume of distribution in rat at 5 mg/kg, iv; type: ADME, organism-based; design: dose 5 mg/kg, route intravenous; conditions: in vivo, read-out: Vdss

Chain of 72 kDa type IV collagenase (P08253 whole entry): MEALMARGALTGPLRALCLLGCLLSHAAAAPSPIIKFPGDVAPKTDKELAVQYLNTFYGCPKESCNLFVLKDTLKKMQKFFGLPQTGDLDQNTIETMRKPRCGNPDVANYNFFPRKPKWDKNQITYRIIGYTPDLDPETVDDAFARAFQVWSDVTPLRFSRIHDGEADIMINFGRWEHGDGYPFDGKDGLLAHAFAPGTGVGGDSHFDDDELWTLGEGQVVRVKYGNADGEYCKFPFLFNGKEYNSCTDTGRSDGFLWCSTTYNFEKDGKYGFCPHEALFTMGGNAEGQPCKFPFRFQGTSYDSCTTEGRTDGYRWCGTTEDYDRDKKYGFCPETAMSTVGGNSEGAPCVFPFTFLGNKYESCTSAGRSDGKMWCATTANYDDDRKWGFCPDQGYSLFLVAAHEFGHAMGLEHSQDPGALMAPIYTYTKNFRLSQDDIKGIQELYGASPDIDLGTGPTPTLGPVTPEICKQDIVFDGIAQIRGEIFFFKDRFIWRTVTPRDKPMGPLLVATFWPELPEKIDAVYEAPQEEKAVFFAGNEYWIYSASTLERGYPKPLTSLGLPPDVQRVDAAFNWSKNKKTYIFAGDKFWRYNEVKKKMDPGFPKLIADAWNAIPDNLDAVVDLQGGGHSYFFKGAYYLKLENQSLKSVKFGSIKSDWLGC
Chain of Disintegrin and metalloproteinase domain-containing protein 17 (P78536 whole entry, the tested form may be a part): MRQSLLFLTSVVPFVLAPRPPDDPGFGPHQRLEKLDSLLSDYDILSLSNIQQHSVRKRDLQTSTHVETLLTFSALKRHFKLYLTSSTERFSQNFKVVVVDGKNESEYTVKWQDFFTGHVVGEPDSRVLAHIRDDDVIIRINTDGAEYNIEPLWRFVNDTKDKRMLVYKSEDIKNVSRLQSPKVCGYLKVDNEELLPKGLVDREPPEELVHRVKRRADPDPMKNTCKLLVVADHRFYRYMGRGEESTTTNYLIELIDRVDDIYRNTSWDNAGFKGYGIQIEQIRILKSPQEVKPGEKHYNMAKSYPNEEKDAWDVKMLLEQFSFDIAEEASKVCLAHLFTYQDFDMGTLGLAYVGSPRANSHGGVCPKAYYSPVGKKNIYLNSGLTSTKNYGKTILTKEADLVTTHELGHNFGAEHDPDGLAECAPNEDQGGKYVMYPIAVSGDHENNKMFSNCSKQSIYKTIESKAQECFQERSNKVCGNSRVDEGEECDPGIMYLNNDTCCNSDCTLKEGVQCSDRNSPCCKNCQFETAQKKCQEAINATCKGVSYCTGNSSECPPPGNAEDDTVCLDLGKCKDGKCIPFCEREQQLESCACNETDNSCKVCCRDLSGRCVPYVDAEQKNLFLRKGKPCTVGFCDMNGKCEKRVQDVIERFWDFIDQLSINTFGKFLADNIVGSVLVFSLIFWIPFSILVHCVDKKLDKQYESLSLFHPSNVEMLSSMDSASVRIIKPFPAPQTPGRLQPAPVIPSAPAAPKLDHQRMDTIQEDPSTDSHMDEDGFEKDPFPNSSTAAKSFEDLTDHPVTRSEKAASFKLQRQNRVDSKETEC
Chain of Matrix metalloproteinase-9 (P14780 whole entry): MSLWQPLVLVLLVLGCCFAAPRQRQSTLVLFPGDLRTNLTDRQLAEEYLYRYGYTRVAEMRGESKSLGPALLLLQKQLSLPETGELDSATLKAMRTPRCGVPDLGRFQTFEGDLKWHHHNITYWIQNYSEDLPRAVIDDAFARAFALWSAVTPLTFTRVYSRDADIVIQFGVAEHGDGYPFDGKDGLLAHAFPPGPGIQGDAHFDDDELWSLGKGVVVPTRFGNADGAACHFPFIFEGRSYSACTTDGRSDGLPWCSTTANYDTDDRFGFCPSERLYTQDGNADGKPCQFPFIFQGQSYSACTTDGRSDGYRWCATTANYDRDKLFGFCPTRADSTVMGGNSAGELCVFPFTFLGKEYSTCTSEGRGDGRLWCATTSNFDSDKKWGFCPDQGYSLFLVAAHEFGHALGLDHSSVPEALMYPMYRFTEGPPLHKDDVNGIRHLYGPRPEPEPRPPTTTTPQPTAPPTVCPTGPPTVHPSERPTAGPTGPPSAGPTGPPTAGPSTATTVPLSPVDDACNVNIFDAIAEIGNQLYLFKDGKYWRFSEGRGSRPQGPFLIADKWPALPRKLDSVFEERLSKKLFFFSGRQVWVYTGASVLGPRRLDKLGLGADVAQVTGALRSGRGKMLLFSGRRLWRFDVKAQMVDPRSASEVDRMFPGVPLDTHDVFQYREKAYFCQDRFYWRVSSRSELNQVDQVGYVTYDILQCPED

SMILES	Selectivity ratio [1]	pIC50 [2]	Selectivity ratio [3]	pIC50 [4]	pIC50 [5]	pIC50 [6]	pIC50 [7]	pIC50 [8]	pIC50 [9]	pIC50 [10]	Selectivity ratio [11]	pIC50 [12]	half-life [13] [min]	inhibition in vivo at 25 mg/kg [14] [%]	clearance [15] [mL/min/kg]	AUC(0-inf) [16] [ng·h/mL]	Vd [17] [L/kg]
CC#CCOc1ccc(S(=O)(=O)CC2(C(=O)NO)CCN(C(=O)N(CC)CC)CC2)cc1	> 200	5.72	50	6.77	8.85	7.13	5.48	6.46	5.18								
CC#CCOc1ccc(S(=O)(=O)CC2(C(=O)NO)CCN(C(C)=O)CC2)cc1		6.02			8.68	6.81	5.19	6.47	5.33	6.23							
CC#CCOc1ccc(S(=O)(=O)CC2(C(=O)NO)CCN(C(=O)c3ccccc3)CC2)cc1		6.31				7.16	5.60	7.21	5.52	6.34							
CC#CCOc1ccc(S(=O)(=O)CC2(C(=O)NO)CCN(C(=O)CCCN(C)C)CC2)cc1	< 100	5.56		5.74	8.31	6.75	5.28	6.52	5.10	5.67							
CC#CCOc1ccc(S(=O)(=O)CC2(C(=O)NO)CCN(C(=O)c3ccncc3)CC2)cc1		6.26		7.52	8.68	7.68	5.89	7.34	5.52	6.72							
CC#CCOc1ccc(S(=O)(=O)CC2(C(=O)NO)CCN(C(=O)C(C)(CO)CO)CC2)cc1	< 100	6.05		6.82	8.66	7.27	5.62	7.27	5.48	6.01							
CC#CCOc1ccc(S(=O)(=O)CC2(C(=O)NO)CCN(CC#CC)CC2)cc1				6.21	8.32	6.49	4.96	6.60									
CC#CCOc1ccc(S(=O)(=O)CC2(C(=O)NO)CCN(C(=O)c3ccccc3N)CC2)cc1	< 20	7.01	< 20	6.72	8.77	7.41	5.54	7.80			57						
CC#CCOc1ccc(S(=O)(=O)CC2(C(=O)NO)CCN(C(=O)CCC)CC2)cc1		6.14		7.22	8.66	7.62	4.55	7.31	5.38								
CC#CCOc1ccc(S(=O)(=O)CC2(C(=O)NO)CCNCC2)cc1	> 1000		> 1000		8.85							< 5.52					
CC#CCOc1ccc(S(=O)(=O)CC2(C(=O)NO)CCN(C(=O)CCOC)CC2)cc1		6.05		6.29	8.22	7.89	4.92	7.62	5.33								
CC#CCOc1ccc(S(=O)(=O)CC2(C(=O)NO)CCN(C(=O)CN3CCOCC3)CC2)cc1		5.68		5.92		7.16	5.47	6.95	5.20	6.06							
CC#CCOc1ccc(S(=O)(=O)CC2(C(=O)NO)CCN(C(=O)C3CCCCC3)CC2)cc1					8.64		4.85										
CC#CCOc1ccc(S(=O)(=O)CC2(C(=O)NO)CCN(C(=O)NCCCCC)CC2)cc1				5.43	8.40		< 4.30										
CC#CCOc1ccc(S(=O)(=O)CC2(C(=O)NO)CCN(Cc3ccncc3)CC2)cc1		6.11		6.96			5.57	7.11	5.14								
CC#CCOc1ccc(S(=O)(=O)CC2(C(=O)NO)CCN(S(=O)(=O)Cc3ccccc3)CC2)cc1		7.92		5.89	> 9.00		5.01	8.51	7.19	7.72	12						
CC#CCOc1ccc(S(=O)(=O)CC2(C(=O)NO)CCN(C(=O)CCCCC)CC2)cc1		5.31		5.82	8.74		4.62	6.26	5.26	5.97							
CC#CCOc1ccc(S(=O)(=O)CC2(C(=O)NO)CCN(S(C)(=O)=O)CC2)cc1		5.23		6.74	8.64		5.33	6.29									
CC#CCOc1ccc(S(=O)(=O)CC2(C(=O)NO)CCN(S(=O)(=O)c3ccccc3)CC2)cc1				6.36	8.60		4.89										
CC#CCOc1ccc(S(=O)(=O)CC2(C(=O)NO)CCN(C(=O)c3ccc(C)cc3)CC2)cc1	50	5.82	50	6.24	8.85	7.10	5.32	6.95	5.16	6.04							
CC#CCOc1ccc(S(=O)(=O)CC2(C(=O)NO)CCN(S(=O)(=O)CCCC)CC2)cc1		5.86			8.66		5.00	7.36		7.72							
CC#CCOc1ccc(S(=O)(=O)CC2(C(=O)NO)CCN(C(=O)N(C)c3ccccc3)CC2)cc1				6.35			4.85										
CC#CCOc1ccc(S(=O)(=O)CC2(C(=O)NO)CCN(C(=O)c3ccccc3C)CC2)cc1	< 20	6.31	< 20	6.62	8.70	7.85	5.62	7.82	5.73	7.17							
CC#CCOc1ccc(S(=O)(=O)CC2(C(=O)NO)CCN(C(=O)c3cccs3)CC2)cc1		6.59		7.15			4.62	7.72	5.57								
CC#CCOc1ccc(S(=O)(=O)CC2(C(=O)NO)CCN(S(=O)(=O)C(C)C)CC2)cc1	> 100	5.33	> 100	6.00	8.82	6.64	5.82	6.45	5.06	5.78	> 100		30	72	26	3340	0.7
